Results: the supplement of paper PMC10307832

Columns and labels:
Test in all cases: relative viability (nuclei count vs DMSO), 5 days (fraction); higher = more cells survive
Cediranib + Foretinib = compound: COc1cc2c(Oc3ccc4[nH]c(C)cc4c3F)ncnc2cc1OCCCN1CCCC1 [Cediranib] + COc1cc2c(Oc3ccc(NC(=O)C4(C(=O)Nc5ccc(F)cc5)CC4)cc3F)ccnc2cc1OCCCN1CCOCC1 [Foretinib] (partner 0.25 µM)
Summary of the method: (§1)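 Relative viability was taken as the ratio of nuclei in treated wells to nuclei in vehicle wells. Lung cancer cell lines in 1536-well plates received compounds by pin tool one day after seeding, either one drug alone or a fixed anchor-drug dose plus five library-drug doses (not always all listed) in √10 steps. Nuclei were counted on 4× images after 5 days of treatment, and values are medians of duplicate plates.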

Decitabine + Alpelisib = compound: Nc1ncn([C@H]2C[C@H](O)[C@@H](CO)O2)c(=O)n1 [Decitabine] + Cc1nc(NC(=O)N2CCC[C@H]2C(N)=O)sc1-c1ccnc(C(C)(C)C(F)(F)F)c1 [Alpelisib] (partner 2 µM)
Summary of the method: as §1

Decitabine + Pemetrexed = compound: Nc1ncn([C@H]2C[C@H](O)[C@@H](CO)O2)c(=O)n1 [Decitabine] + Nc1nc2[nH]cc(CCc3ccc(C(=O)N[C@@H](CCC(=O)O)C(=O)O)cc3)c2c(=O)[nH]1 [Pemetrexed] (partner 0.2 µM)
Summary of the method: as §1

Halofuginone + Lapatinib = compound: O=C(C[C@H]1NCCC[C@@H]1O)Cn1cnc2cc(Br)c(Cl)cc2c1=O (racemic) [Halofuginone] + CS(=O)(=O)CCNCc1ccc(-c2ccc3ncnc(Nc4ccc(OCc5cccc(F)c5)c(Cl)c4)c3c2)o1 [Lapatinib] (partner 2 µM)
Summary of the method: as §1

Cell Line | relative viability (Cediranib + Foretinib; first compound 0.04 µM) | relative viability (Cediranib + Foretinib; first compound 0.1265 µM) | relative viability (Cediranib + Foretinib; first compound 0.4 µM) | relative viability (Cediranib + Foretinib; first compound 1.265 µM) | relative viability (Cediranib + Foretinib; first compound 4 µM) | relative viability (Decitabine + Alpelisib; first compound 0.04 µM) | relative viability (Decitabine + Alpelisib; first compound 0.1265 µM) | relative viability (Decitabine + Alpelisib; first compound 0.4 µM) | relative viability (Decitabine + Alpelisib; first compound 1.265 µM) | relative viability (Decitabine + Alpelisib; first compound 4 µM) | relative viability (Decitabine + Pemetrexed; first compound 0.04 µM) | relative viability (Decitabine + Pemetrexed; first compound 0.1265 µM) | relative viability (Decitabine + Pemetrexed; first compound 0.4 µM) | relative viability (Decitabine + Pemetrexed; first compound 1.265 µM) | relative viability (Decitabine + Pemetrexed; first compound 4 µM) | relative viability (Halofuginone + Lapatinib; first compound 0.001 µM) | relative viability (Halofuginone + Lapatinib; first compound 0.003162 µM) | relative viability (Halofuginone + Lapatinib; first compound 0.01 µM) | relative viability (Halofuginone + Lapatinib; first compound 0.03162 µM) | relative viability (Halofuginone + Lapatinib; first compound 0.1 µM)
NCI-H1355 | 0.991 | 1.02 | 0.894 | 0.948 | 1.09 | 0.632 | 0.536 | 0.412 | 0.295 | 0.266 | 0.701 | 0.513 | 0.38 | 0.323 | 0.314 | 1.03 | 1.03 | 0.972 | 0.984 | 0.891
SW 1573 | 0.937 | 1.01 | 0.912 | 0.996 | 1.09 | 0.7 | 0.912 | 0.61 | 0.274 | 0.298 | 0.812 | 0.844 | 0.87 | 0.494 | 0.323 | 1.13 | 1.29 | 1.1 | 1.1 | 1.07
NCI-H661 | 1.04 | 0.971 | 0.956 | 0.978 | 1.11 | 0.432 | 0.44 | 0.313 | 0.246 | 0.342 | 0.779 | 0.657 | 0.572 | 0.481 | 0.404 | 0.558 | 0.546 | 0.424 | 0.508 | 0.366
LU99A | 0.793 | 0.728 | 0.8 | 0.769 | 0.832 | 0.466 | 0.7 | 0.625 | 0.504 | 0.389 | 0.149 | 0.157 | 0.182 | 0.202 | 0.167 | 0.985 | 0.965 | 0.892 | 0.934 | 0.607
LCLC-97TM1 | 0.969 | 0.919 | 0.946 | 0.921 | 0.967 | 0.172 | 0.151 | 0.14 | 0.129 | 0.112 | 0.173 | 0.134 | 0.0965 | 0.125 | 0.13 | 0.72 | 0.881 | 1.02 | 0.754 | 0.825
LC-2-ad | 1.12 | 0.581 | 0.883 | 1.04 | 0.891 | 0.726 | 0.742 | 0.681 | 0.378 | 0.304 | 0.288 | 0.255 | 0.27 | 0.239 | 0.266 | 0.98 | 1.02 | 0.93 | 0.874 | 0.726
NCI-H1395 | 1.1 | 1.01 | 0.911 | 0.976 | 1.13 | 0.821 | 0.776 | 0.786 | 0.518 | 0.631 | 0.64 | 0.685 | 0.744 | 0.474 | 0.484 | 1.02 | 0.873 | 1.04 | 0.891 | 0.71
NCI-H2228 | 0.986 | 0.882 | 0.761 | 0.838 | 0.99 | 0.479 | 0.41 | 0.453 | 0.298 | 0.201 | 0.232 | 0.208 | 0.179 | 0.166 | 0.163 | 1.06 | 1.02 | 0.908 | 0.657 | 0.121
